PubChem BioAssay (NCI)
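96-well plates; 48 h exposure; 5 concentrations. Endpoints by linear interpolation between flanking doses. Not reached: highest tested concentration assigned. TGI: total growth inhibition.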

Key:
Experiment in all cases: NCI anticancer screen, dose series, 48 h
K-562 leukemia = system: K-562 leukemia
SW-620 colon = system: SW-620 colon
OVCAR-8 ovarian = system: OVCAR-8 ovarian
CCRF-CEM leukemia = system: CCRF-CEM leukemia
COLO 205 colon = system: COLO 205 colon
OVCAR-3 ovarian = system: OVCAR-3 ovarian
A549 NSCLC = system: A549 NSCLC
HCT-15 colon = system: HCT-15 colon
SF-539 CNS = system: SF-539 CNS
SK-OV-3 ovarian = system: SK-OV-3 ovarian
HOP-92 NSCLC = system: HOP-92 NSCLC
HCT-116 colon = system: HCT-116 colon
HT29 colon = system: HT29 colon
RXF 393 renal = system: RXF 393 renal
KM12 colon = system: KM12 colon
SN12C renal = system: SN12C renal
SK-MEL-5 melanoma = system: SK-MEL-5 melanoma
UACC-62 melanoma = system: UACC-62 melanoma
MDA-MB-435 = system: MDA-MB-435
MDA-MB-231 breast = system: MDA-MB-231 breast

| Compound | TGI (K-562 leukemia) | TGI (SW-620 colon) | TGI (OVCAR-8 ovarian) | TGI (CCRF-CEM leukemia) | TGI (COLO 205 colon) | TGI (OVCAR-3 ovarian) | TGI (A549 NSCLC) | TGI (HCT-15 colon) | TGI (SF-539 CNS) | TGI (SK-OV-3 ovarian) | TGI (HOP-92 NSCLC) | TGI (HCT-116 colon) | TGI (HT29 colon) | TGI (RXF 393 renal) | TGI (KM12 colon) | TGI (SN12C renal) | TGI (SK-MEL-5 melanoma) | TGI (UACC-62 melanoma) | TGI (MDA-MB-435) | TGI (MDA-MB-231 breast) |
| --- | --- | --- | --- | --- | --- | --- | --- | --- | --- | --- | --- | --- | --- | --- | --- | --- | --- | --- | --- | --- |
| N/C(=N\N=C\c1ccc2c(c1)OCCO2)NO | > 72.4 µM | > 100 µM | > 76.6 µM | > 100 µM | 38.5 µM | 16.2 µM | > 82.9 µM | > 100 µM | > 81.1 µM | > 100 µM | 80.6 µM | > 100 µM | 33.6 µM | > 100 µM | > 100 µM | > 100 µM | 22.4 µM | > 34.4 µM | – | – |
| Cc1ccc(S(=O)(=O)N2CCCSCC2)cc1 | > 100 µM | > 100 µM | > 100 µM | > 100 µM | > 100 µM | – | > 100 µM | > 100 µM | – | > 100 µM | > 100 µM | > 100 µM | > 100 µM | > 100 µM | > 100 µM | > 100 µM | > 100 µM | – | > 100 µM | > 100 µM |
| CCCC(=O)Nc1cc(/C=C/C(=O)N2CC(CCl)c3c2cc(O)c2[nH]cc(C)c32)n(C)c1 (centres undefined) | > 0.25 µM | > 0.25 µM | 0.000532 µM | 0.000155 µM | – | – | – | > 0.196 µM | < 2.5e-05 µM | 0.00563 µM | < 2.5e-05 µM | – | 0.0285 µM | < 2.5e-05 µM | > 0.25 µM | 0.000528 µM | < 2.5e-05 µM | < 2.5e-05 µM | < 2.5e-05 µM | 0.0344 µM |
| CC(=O)C1CC[C@@H]2[C@H](CC[C@]3(C)[C@@H](O)CC[C@@H]23)[C@H]1C(=O)O (some centres undefined) | > 100 µM | > 100 µM | > 100 µM | > 100 µM | > 100 µM | > 100 µM | > 100 µM | > 100 µM | > 100 µM | > 100 µM | > 100 µM | – | > 100 µM | > 100 µM | > 100 µM | – | > 100 µM | > 100 µM | > 100 µM | > 100 µM |
| O=C1c2ccccc2C(=O)N1CC(O)COc1cccc2ccccc12 (centres undefined) | > 100 µM | > 100 µM | > 100 µM | > 100 µM | > 100 µM | > 100 µM | > 100 µM | > 100 µM | – | > 100 µM | – | > 100 µM | > 100 µM | – | – | – | > 100 µM | > 100 µM | > 100 µM | > 100 µM |
| Oc1ccc(-c2nc3ccc(Cl)cc3s2)cc1 | > 100 µM | 39.3 µM | 39 µM | 24.4 µM | 32.3 µM | 40.7 µM | 45.2 µM | 31.1 µM | 34.7 µM | 36.4 µM | – | 29.5 µM | 34.6 µM | 44 µM | 34.2 µM | 35.7 µM | 35.7 µM | 31.2 µM | 35.6 µM | 45.5 µM |
| COc1cc(C(O)(CC#N)c2cc3c(cc2Br)OCO3)cc(OC)c1OC (centres undefined) | > 100 µM | > 100 µM | > 100 µM | > 100 µM | > 100 µM | > 100 µM | > 100 µM | – | 34.9 µM | > 100 µM | > 100 µM | > 100 µM | 54.9 µM | > 100 µM | 98.7 µM | > 100 µM | – | > 100 µM | 13.7 µM | 54.5 µM |
| CC1(C)OCC=CCO1 | > 100 µM | > 100 µM | > 100 µM | > 100 µM | > 100 µM | > 100 µM | > 100 µM | – | > 100 µM | > 100 µM | > 100 µM | > 100 µM | > 100 µM | > 100 µM | > 100 µM | > 100 µM | > 100 µM | > 100 µM | > 100 µM | – |
